These are literature values, as cited in US20150079169A1 (POZEN INC., priority 2011, published 2015).

For series [1] the following is noted: for major cardiovascular events (ischaemic stroke, MI, or vascular death), average rate per year: 19,185 people with history of MI, stroke, or peripheral arterial disease, clopidogrel 75 mg daily versus aspirin 325 mg daily.
For series [2] the following is noted: clopidogrel therapy.
The mark [3] stands for this setting: oral dose of 14C-labeled clopidogrel in humans, five days after dosing.
[4] abbreviates: repeated oral doses of 75 mg clopidogrel (base).

For the compound `CC(=O)Oc1ccccc1C(=O)O` [aspirin], the “major cardiovascular events (ischaemic stroke, MI, or vascular death), average rate per year” value in series [1] is reported as 6%. Also, in series [1] (people with known vascular disease), the “reduction of incidence of non-fatal myocardial infarction, non-fatal stroke and vascular death” value is reported as “about a quarter”.
Take `COC(=O)[C@H](c1ccccc1Cl)N1CCc2sccc2C1` [clopidogrel bisulfate]: the “effect of administration with meals on bioavailability of clopidogrel” value (assessed by pharmacokinetics of the main circulating metabolite) is listed as “did not significantly modify”.
As to `COC(=O)[C@H](c1ccccc1Cl)N1CCc2sccc2C1` [clopidogrel], the “reversible binding in vitro to human plasma proteins” value in the series with human plasma proteins was 98%. Further, in series [1] (95% CI 0.30% to 16.5%, P=0.04), the “RRR of major cardiovascular events versus aspirin” value is listed as 8.7%. Besides, the “OR for cardiovascular events compared with aspirin” value in series [1] (95% CI 0.84 to 0.98) was 0.91. Further, the “major cardiovascular events (ischaemic stroke, MI, or vascular death), average rate per year” value in series [1] was 5%. For the same compound, the “greater risk for major adverse cardiovascular events in patients with CYP2C19 variants” value in series [1] (patients with variants in cytochrome P-450 2C19) is reported as 3.58 fold. The Absorption entry (based on urinary excretion of clopidogrel-related metabolites) is “at least 50%”. Where the note is “in vivo”, the “elimination half-life of the active metabolite” value is reported as “about eight hours” and the “time of peak plasma levels” value was 30 to 60 min. In addition, under setting [3], the “excreted in the feces” value is listed as “approximately 46%” and the “excreted in the urine” value is “approximately 50%”. For the same compound, the “plasma concentrations of the parent compound (below the quantification limit)” value (repeated 75 mg oral doses, beyond two hours after dosing) is under 0.258 ng/mL. In addition, under setting [4], the “peak plasma levels of the main circulating metabolite” value is given as “approx. 3 mg/L” and the “time of peak plasma levels of the main circulating metabolite” value was “approximately one hour after dosing”. The “incidence of gastrointestinal hemorrhage” value in series [2] is on record as 2.0 % annually.
Turning to `O=C(O)[C@H](c1ccccc1Cl)N1CCc2sccc2C1` [main circulating metabolite], in the series with human plasma proteins, the “reversible binding in vitro to human plasma proteins” value is 94%.
